Source: patent US20110250134A1, “SUSTAINED RELEASE NITRIC OXIDE FROM LONG LIVED CIRCULATING NANOPARTICLES” (priority 2010, published 2011)

Experiment: Total NO released (NO agents decomposition)
Format: physicochemical
Procedure: Total NO released (NO agents decomposition). Gaseous NO levels were measured using a chemiluminescent NO analyzer (Sievers NO analyzer, Model 280i, Boulder, Colo.). […] Solutions were continuously bubbled with pure nitrogen (0.2 L/min). The gas phase was collected into the NO analyzer for a minute every 10 min., and the excess flow was evacuated through an underwater seal (1 cm H2O).

| Structure (SMILES) | NO liberated experimentally |
| --- | --- |
| NCCN(CCN)/[N+]([O-])=N/O [DETA NONOate, Diethylenetriamine NONOate] | 10.7 μmols of NO/mg |
| NCCCN(CCCN)/[N+]([O-])=N/O [DPTA NONOate, Dipropylenetriamine NONOate] | 9.4 µmol/mg |
